What was measured:
Assay in all cases: relative viability vs DMSO control (72 h) (fraction); higher = more viable cells
A204 = test system: A204
How it was run: (§1)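 ATPLite readings, expressed as percent growth and averaged over up to triplicate wells, provided relative viability. Before reading, sarcoma cell lines seeded in 384-well plates to reach 80–90% confluence received 2.5 µl of serially diluted compound after 24 h, from source plates of 10 mM to 0.0002 mM. Plates were held 72 h at 37 °C, 5% CO2, with 0.1% DMSO as vehicle and a 5 µM positive control. The data were rescaled to 1 for full and 0 for none.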

G401 = test system: G401
How it was run: as §1

HS729 = test system: HS729
How it was run: as §1

HT1080 = test system: HT1080
How it was run: as §1

KHOS-NP = test system: KHOS-NP
How it was run: as §1

MES-SA = test system: MES-SA
How it was run: as §1

SK-LMS-1 = test system: SK-LMS-1
How it was run: as §1

SW1353 = test system: SW1353
How it was run: as §1

SW684 = test system: SW684
How it was run: as §1

SW872 = test system: SW872
How it was run: as §1

SYO-1 = test system: SYO-1
How it was run: as §1

VA-ES-BJ = test system: VA-ES-BJ
How it was run: as §1

CCC(=O)N1CC[C@H](Nc2ncnc3c2CN(c2cnc(OC)c(C(F)(F)F)c2)CC3)C1 [Leniolisib]
Details	relative viability
A204, 0.00017 µM	1.04
A204, 0.00051 µM	1.06
A204, 0.00152 µM	1
A204, 0.00457 µM	1.04
A204, 0.01372 µM	1.03
A204, 0.04115 µM	1.02
A204, 0.1235 µM	1.01
A204, 0.3704 µM	0.986
A204, 1.111 µM	0.897
A204, 3.333 µM	0.768
A204, 10 µM	0.579
G401, 0.00017 µM	1.02
G401, 0.00051 µM	1
G401, 0.00152 µM	1.01
G401, 0.00457 µM	1.01
G401, 0.01372 µM	1.02
G401, 0.04115 µM	0.973
G401, 0.1235 µM	0.947
G401, 0.3704 µM	0.936
G401, 1.111 µM	0.868
G401, 3.333 µM	0.835
G401, 10 µM	0.689
HS729, 0.00017 µM	1.07
HS729, 0.00051 µM	1.02
HS729, 0.00152 µM	0.964
HS729, 0.00457 µM	0.982
HS729, 0.01372 µM	0.965
HS729, 0.04115 µM	0.95
HS729, 0.1235 µM	0.947
HS729, 0.3704 µM	0.992
HS729, 1.111 µM	0.838
HS729, 3.333 µM	0.82
HS729, 10 µM	0.675
HT1080, 0.00017 µM	1.09
HT1080, 0.00051 µM	1.077
HT1080, 0.00152 µM	1.1
HT1080, 0.00457 µM	1.09
HT1080, 0.01372 µM	1.05
HT1080, 0.04115 µM	1.038
HT1080, 0.1235 µM	1.05
HT1080, 0.3704 µM	1.04
HT1080, 1.111 µM	1.03
HT1080, 3.333 µM	1.04
HT1080, 10 µM	0.94
KHOS-NP, 0.00017 µM	1.11
KHOS-NP, 0.00051 µM	1.11
KHOS-NP, 0.00152 µM	1.09
KHOS-NP, 0.00457 µM	1.101
KHOS-NP, 0.01372 µM	1.08
KHOS-NP, 0.04115 µM	1.07
KHOS-NP, 0.1235 µM	1.07
KHOS-NP, 0.3704 µM	1.061
KHOS-NP, 1.111 µM	1.05
KHOS-NP, 3.333 µM	1.05
KHOS-NP, 10 µM	0.96
MES-SA, 0.00017 µM	0.966
MES-SA, 0.00051 µM	0.94
MES-SA, 0.00152 µM	0.932
MES-SA, 0.00457 µM	0.934
MES-SA, 0.01372 µM	0.936
MES-SA, 0.04115 µM	0.906
MES-SA, 0.1235 µM	0.922
MES-SA, 0.3704 µM	0.895
MES-SA, 1.111 µM	0.8678
MES-SA, 3.333 µM	0.786
MES-SA, 10 µM	0.585
SK-LMS-1, 0.00017 µM	1.11
SK-LMS-1, 0.00051 µM	1.07
SK-LMS-1, 0.00152 µM	1.1
SK-LMS-1, 0.00457 µM	1.08
SK-LMS-1, 0.01372 µM	1.05
SK-LMS-1, 0.04115 µM	1.04
SK-LMS-1, 0.1235 µM	1.06
SK-LMS-1, 0.3704 µM	0.998
SK-LMS-1, 1.111 µM	0.939
SK-LMS-1, 3.333 µM	0.827
SK-LMS-1, 10 µM	0.712
SW684, 0.00017 µM	1.091
SW684, 0.00051 µM	1.14
SW684, 0.00152 µM	1.14
SW684, 0.00457 µM	1.14
SW684, 0.01372 µM	1.15
SW684, 0.04115 µM	1.03
SW684, 0.1235 µM	0.912
SW684, 0.3704 µM	0.793
SW684, 1.111 µM	0.742
SW684, 3.333 µM	0.674
SW684, 10 µM	0.548
SW872, 0.00017 µM	1.1
SW872, 0.00051 µM	1.09
SW872, 0.00152 µM	1.07
SW872, 0.00457 µM	1.06
SW872, 0.01372 µM	1.06
SW872, 0.04115 µM	1.03
SW872, 0.1235 µM	1.03
SW872, 0.3704 µM	1.03
SW872, 1.111 µM	0.951
SW872, 3.333 µM	0.907
SW872, 10 µM	0.688
SW1353, 0.00017 µM	1.02
SW1353, 0.00051 µM	1.04
SW1353, 0.00152 µM	0.985
SW1353, 0.00457 µM	0.999
SW1353, 0.01372 µM	0.97
SW1353, 0.04115 µM	0.9439
SW1353, 0.1235 µM	0.953
SW1353, 0.3704 µM	0.931
SW1353, 1.111 µM	0.885
SW1353, 3.333 µM	0.826
SW1353, 10 µM	0.692
SYO-1, 0.00017 µM	1.03
SYO-1, 0.00051 µM	0.999
SYO-1, 0.00152 µM	0.984
SYO-1, 0.00457 µM	0.965
SYO-1, 0.01372 µM	0.947
SYO-1, 0.04115 µM	0.949
SYO-1, 0.1235 µM	0.933
SYO-1, 0.3704 µM	0.886
SYO-1, 1.111 µM	0.875
SYO-1, 3.333 µM	0.816
SYO-1, 10 µM	0.724
VA-ES-BJ, 0.00017 µM	1.08
VA-ES-BJ, 0.00051 µM	1.09
VA-ES-BJ, 0.00152 µM	1.05
VA-ES-BJ, 0.00457 µM	1.04
VA-ES-BJ, 0.01372 µM	1.02
VA-ES-BJ, 0.04115 µM	1.06
VA-ES-BJ, 0.1235 µM	1.01
VA-ES-BJ, 0.3704 µM	1
VA-ES-BJ, 1.111 µM	0.984
VA-ES-BJ, 3.333 µM	0.88
VA-ES-BJ, 10 µM	0.645

O=C(Nc1ccc(OC(F)(F)Cl)cc1)c1cnc(N2CC[C@@H](O)C2)c(-c2cc[nH]n2)c1 [Asciminib]
Details	relative viability
A204, 0.00017 µM	1.02
A204, 0.00051 µM	1.04
A204, 0.00152 µM	1.05
A204, 0.00457 µM	1.04
A204, 0.01372 µM	1.04
A204, 0.04115 µM	1.05
A204, 0.1235 µM	1.06
A204, 0.3704 µM	1.06
A204, 1.111 µM	1.04
A204, 3.333 µM	0.799
A204, 10 µM	0.449
G401, 0.00017 µM	0.949
G401, 0.00051 µM	0.921
G401, 0.00152 µM	0.928
G401, 0.00457 µM	0.967
G401, 0.01372 µM	0.961
G401, 0.04115 µM	0.981
G401, 0.1235 µM	0.981
G401, 0.3704 µM	0.99
G401, 1.111 µM	0.9822
G401, 3.333 µM	0.909
G401, 10 µM	0.831
HS729, 0.00017 µM	0.939
HS729, 0.00051 µM	0.932
HS729, 0.00152 µM	0.93
HS729, 0.00457 µM	0.915
HS729, 0.01372 µM	0.916
HS729, 0.04115 µM	0.893
HS729, 0.1235 µM	0.928
HS729, 0.3704 µM	0.901
HS729, 1.111 µM	0.903
HS729, 3.333 µM	0.954
HS729, 10 µM	0.829
HT1080, 0.00017 µM	0.999
HT1080, 0.00051 µM	1.06
HT1080, 0.00152 µM	1
HT1080, 0.00457 µM	0.999
HT1080, 0.01372 µM	0.968
HT1080, 0.04115 µM	1
HT1080, 0.1235 µM	1.03
HT1080, 0.3704 µM	1
HT1080, 1.111 µM	0.998
HT1080, 3.333 µM	0.978
HT1080, 10 µM	0.916
KHOS-NP, 0.00017 µM	1.04
KHOS-NP, 0.00051 µM	1.06
KHOS-NP, 0.00152 µM	1.06
KHOS-NP, 0.00457 µM	1.04
KHOS-NP, 0.01372 µM	1.061
KHOS-NP, 0.04115 µM	1.04
KHOS-NP, 0.1235 µM	1.06
KHOS-NP, 0.3704 µM	1.025
KHOS-NP, 1.111 µM	0.998
KHOS-NP, 3.333 µM	0.901
KHOS-NP, 10 µM	0.695
MES-SA, 0.00017 µM	0.88
MES-SA, 0.00051 µM	0.902
MES-SA, 0.00152 µM	0.864
MES-SA, 0.00457 µM	0.898
MES-SA, 0.01372 µM	0.9132
MES-SA, 0.04115 µM	0.9229
MES-SA, 0.1235 µM	0.914
MES-SA, 0.3704 µM	0.951
MES-SA, 1.111 µM	0.908
MES-SA, 3.333 µM	0.829
MES-SA, 10 µM	0.577
SK-LMS-1, 0.00017 µM	0.928
SK-LMS-1, 0.00051 µM	0.955
SK-LMS-1, 0.00152 µM	0.972
SK-LMS-1, 0.00457 µM	0.97
SK-LMS-1, 0.01372 µM	1.06
SK-LMS-1, 0.04115 µM	1.02
SK-LMS-1, 0.1235 µM	1
SK-LMS-1, 0.3704 µM	1.05
SK-LMS-1, 1.111 µM	1.04
SK-LMS-1, 3.333 µM	0.773
SK-LMS-1, 10 µM	0.565
SW684, 0.00017 µM	1.09
SW684, 0.00051 µM	1.06
SW684, 0.00152 µM	1.09
SW684, 0.00457 µM	1.09
SW684, 0.01372 µM	1.08
SW684, 0.04115 µM	1.102
SW684, 0.1235 µM	1.16
SW684, 0.3704 µM	1.23
SW684, 1.111 µM	1.18
SW684, 3.333 µM	1.11
SW684, 10 µM	0.627
SW872, 0.00017 µM	0.966
SW872, 0.00051 µM	0.94
SW872, 0.00152 µM	0.939
SW872, 0.00457 µM	0.938
SW872, 0.01372 µM	0.937
SW872, 0.04115 µM	0.978
SW872, 0.1235 µM	0.9486
SW872, 0.3704 µM	1.01
SW872, 1.111 µM	0.991
SW872, 3.333 µM	0.974
SW872, 10 µM	0.93
SW1353, 0.00017 µM	0.946
SW1353, 0.00051 µM	0.958
SW1353, 0.00152 µM	0.936
SW1353, 0.00457 µM	0.9604
SW1353, 0.01372 µM	1.04
SW1353, 0.04115 µM	1.1
SW1353, 0.1235 µM	1.1
SW1353, 0.3704 µM	1.14
SW1353, 1.111 µM	1.11
SW1353, 3.333 µM	1.06
SW1353, 10 µM	0.953
SYO-1, 0.00017 µM	0.92
SYO-1, 0.00051 µM	0.91
SYO-1, 0.00152 µM	0.919
SYO-1, 0.00457 µM	0.927
SYO-1, 0.01372 µM	0.904
SYO-1, 0.04115 µM	0.893
SYO-1, 0.1235 µM	0.866
SYO-1, 0.3704 µM	0.844
SYO-1, 1.111 µM	0.813
SYO-1, 3.333 µM	0.76
SYO-1, 10 µM	0.6731
VA-ES-BJ, 0.00017 µM	0.998
VA-ES-BJ, 0.00051 µM	0.982
VA-ES-BJ, 0.00152 µM	0.995
VA-ES-BJ, 0.00457 µM	0.99
VA-ES-BJ, 0.01372 µM	0.999
VA-ES-BJ, 0.04115 µM	1.02
VA-ES-BJ, 0.1235 µM	1.02
VA-ES-BJ, 0.3704 µM	1.03
VA-ES-BJ, 1.111 µM	1.02
VA-ES-BJ, 3.333 µM	0.9997
VA-ES-BJ, 10 µM	0.9486

Source: the supplement of paper PMC10883282
